Source: PubChem BioAssay AID1919007 (Molecular Pharmacology Branch, DTP, NCI, 2023)

Test system: A498 complex spheroids with HUVEC/MSC, growth
Assay: Anticancer human tumor A498 cell line growth inhibition [AhR];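 note: seven day exposure starting three days after spheroid seeding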;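 for viability, T/C: luminescence signal used as a surrogate for viable cells; luminescence viability scaled so 100% equals DMSO vehicle wells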
Settings: for IC50: curve of first compound; for viability, T/C: stronger effect = lower value
In short: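 Agents were dosed in half-log steps down from roughly clinical Cmax, or from 10 microM where Cmax was unknown, alone and with AhR antagonists. Read-out: percent test/control growth of tumor spheroids containing HUVEC and MSC stromal cells.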

[1] = second compound 0.1 µM, first compound 0.0316 µM
[2] = second compound 0.1 µM, first compound 0.1 µM
[3] = second compound 0.1 µM, first compound 0.316 µM
[4] = second compound 0.1 µM, first compound 1 µM
[5] = second compound 0.1 µM, first compound 3.16 µM
[6] = second compound 0.1 µM, first compound 10 µM
[7] = second compound 0.316 µM, first compound 0.0316 µM
[8] = second compound 0.316 µM, first compound 0.1 µM
[9] = second compound 0.316 µM, first compound 0.316 µM
[10] = second compound 0.316 µM, first compound 1 µM
[11] = second compound 0.316 µM, first compound 3.16 µM
[12] = second compound 0.316 µM, first compound 10 µM
[13] = second compound 1 µM, first compound 0.0316 µM
[14] = second compound 1 µM, first compound 0.1 µM
[15] = second compound 1 µM, first compound 0.316 µM
[16] = second compound 1 µM, first compound 1 µM
[17] = second compound 1 µM, first compound 3.16 µM
[18] = second compound 1 µM, first compound 10 µM
[19] = second compound 3.16 µM, first compound 0.0316 µM
[20] = second compound 3.16 µM, first compound 0.1 µM
[21] = second compound 3.16 µM, first compound 0.316 µM
[22] = second compound 3.16 µM, first compound 1 µM
[23] = second compound 3.16 µM, first compound 3.16 µM
[24] = second compound 3.16 µM, first compound 10 µM
[25] = second compound 10 µM, first compound 0.0316 µM
[26] = second compound 10 µM, first compound 0.1 µM
[27] = second compound 10 µM, first compound 0.316 µM
[28] = second compound 10 µM, first compound 1 µM
[29] = second compound 10 µM, first compound 3.16 µM
[30] = second compound 10 µM, first compound 10 µM
[31] = second compound 0.1 µM, first compound 0.00949 µM
[32] = second compound 0.1 µM, first compound 0.03 µM
[33] = second compound 0.1 µM, first compound 0.0949 µM
[34] = second compound 0.1 µM, first compound 0.3 µM
[35] = second compound 0.316 µM, first compound 0.00949 µM
[36] = second compound 0.316 µM, first compound 0.03 µM
[37] = second compound 0.316 µM, first compound 0.0949 µM
[38] = second compound 0.316 µM, first compound 0.3 µM
[39] = second compound 1 µM, first compound 0.00949 µM
[40] = second compound 1 µM, first compound 0.03 µM
[41] = second compound 1 µM, first compound 0.0949 µM
[42] = second compound 1 µM, first compound 0.3 µM
[43] = second compound 3.16 µM, first compound 0.00949 µM
[44] = second compound 3.16 µM, first compound 0.03 µM
[45] = second compound 3.16 µM, first compound 0.0949 µM
[46] = second compound 3.16 µM, first compound 0.3 µM
[47] = second compound 10 µM, first compound 0.00949 µM
[48] = second compound 10 µM, first compound 0.03 µM
[49] = second compound 10 µM, first compound 0.0949 µM
[50] = second compound 10 µM, first compound 0.3 µM

## CC1(C)CCC(CN2CCN(c3ccc(C(=O)NS(=O)(=O)c4ccc(NCC5CCOCC5)c([N+](=O)[O-])c4)c(Oc4cnc5[nH]ccc5c4)c3)CC2)=C(c2ccc(Cl)cc2)C1 + Cc1cncc(-c2nc(NCCc3c[nH]c4ccccc34)c3ncn(C(C)C)c3n2)c1
Second compound 0.1 µM
  IC50: 5.37 µM
Second compound 0.316 µM
  IC50: 5.32 µM
Second compound 1 µM
  IC50: 5.03 µM
Second compound 3.16 µM
  IC50: < 0.0316 µM
Second compound 10 µM
  IC50: < 0.0316 µM
[1]
  viability, T/C: 88.5%
[2]
  viability, T/C: 90%
[3]
  viability, T/C: 85.3%
[4]
  viability, T/C: 78.6%
[5]
  viability, T/C: 72.3%
[6]
  viability, T/C: 26%
[7]
  viability, T/C: 89.2%
[8]
  viability, T/C: 92.2%
[9]
  viability, T/C: 95.1%
[10]
  viability, T/C: 78.3%
[11]
  viability, T/C: 71%
[12]
  viability, T/C: 26.6%
[13]
  viability, T/C: 84.7%
[14]
  viability, T/C: 90.3%
[15]
  viability, T/C: 87%
[16]
  viability, T/C: 73.5%
[17]
  viability, T/C: 66.9%
[18]
  viability, T/C: 28.3%
[19]
  viability, T/C: 43.6%
[20]
  viability, T/C: 43.4%
[21]
  viability, T/C: 48.5%
[22]
  viability, T/C: 40.9%
[23]
  viability, T/C: 39.6%
[24]
  viability, T/C: 24.5%
[25]
  viability, T/C: 2.24%
[26]
  viability, T/C: 2.27%
[27]
  viability, T/C: 3.12%
[28]
  viability, T/C: 4.57%
[29]
  viability, T/C: 3.12%
[30]
  viability, T/C: 5.62%

## CC1COCCN1c1cc(C2(S(C)(=N)=O)CC2)nc(-c2ccnc3[nH]ccc23)n1 (stereo not given) + Cc1cncc(-c2nc(NCCc3c[nH]c4ccccc34)c3ncn(C(C)C)c3n2)c1
Second compound 0.1 µM
  IC50: 3.55 µM
Second compound 0.316 µM
  IC50: 2.69 µM
Second compound 1 µM
  IC50: 2.26 µM
Second compound 3.16 µM
  IC50: < 0.0316 µM
Second compound 10 µM
  IC50: < 0.0316 µM
[1]
  viability, T/C: 97.8%
[2]
  viability, T/C: 98.7%
[3]
  viability, T/C: 90.4%
[4]
  viability, T/C: 81.9%
[5]
  viability, T/C: 52.5%
[6]
  viability, T/C: 23.1%
[7]
  viability, T/C: 94.9%
[8]
  viability, T/C: 102%
[9]
  viability, T/C: 96.3%
[10]
  viability, T/C: 78.5%
[11]
  viability, T/C: 45.7%
[12]
  viability, T/C: 27.5%
[13]
  viability, T/C: 86.8%
[14]
  viability, T/C: 92%
[15]
  viability, T/C: 87.5%
[16]
  viability, T/C: 68.2%
[17]
  viability, T/C: 42.9%
[18]
  viability, T/C: 23.4%
[19]
  viability, T/C: 37.1%
[20]
  viability, T/C: 37.2%
[21]
  viability, T/C: 39.5%
[22]
  viability, T/C: 35.5%
[23]
  viability, T/C: 33.9%
[24]
  viability, T/C: 21.9%
[25]
  viability, T/C: 4.97%
[26]
  viability, T/C: 6.89%
[27]
  viability, T/C: 5.25%
[28]
  viability, T/C: 5.47%
[29]
  viability, T/C: 5.09%
[30]
  viability, T/C: 9.27%

## CCN(c1cc(-c2ccc(CN3CCOCC3)cc2)cc(C(=O)NCc2c(C)cc(C)[nH]c2=O)c1C)C1CCOCC1 + Cc1cncc(-c2nc(NCCc3c[nH]c4ccccc34)c3ncn(C(C)C)c3n2)c1
Second compound 0.1 µM
  IC50: > 3 µM
Second compound 0.316 µM
  IC50: > 3 µM
Second compound 1 µM
  IC50: > 3 µM
Second compound 3.16 µM
  IC50: < 0.00949 µM
Second compound 10 µM
  IC50: < 0.00949 µM
[31]
  viability, T/C: 94%
[32]
  viability, T/C: 97%
[33]
  viability, T/C: 90.2%
[34]
  viability, T/C: 87.7%
Second compound 0.1 µM, first compound 0.949 µM
  viability, T/C: 97.7%
Second compound 0.1 µM, first compound 3 µM
  viability, T/C: 88.4%
[35]
  viability, T/C: 103%
[36]
  viability, T/C: 94.2%
[37]
  viability, T/C: 101%
[38]
  viability, T/C: 90%
Second compound 0.316 µM, first compound 0.949 µM
  viability, T/C: 97.4%
Second compound 0.316 µM, first compound 3 µM
  viability, T/C: 91.5%
[39]
  viability, T/C: 88.8%
[40]
  viability, T/C: 91.4%
[41]
  viability, T/C: 86.1%
[42]
  viability, T/C: 81.3%
Second compound 1 µM, first compound 0.949 µM
  viability, T/C: 82%
Second compound 1 µM, first compound 3 µM
  viability, T/C: 88.1%
[43]
  viability, T/C: 44.6%
[44]
  viability, T/C: 45%
[45]
  viability, T/C: 47.2%
[46]
  viability, T/C: 44.5%
Second compound 3.16 µM, first compound 0.949 µM
  viability, T/C: 45.7%
Second compound 3.16 µM, first compound 3 µM
  viability, T/C: 39.5%
[47]
  viability, T/C: 4.35%
[48]
  viability, T/C: 4.58%
[49]
  viability, T/C: 6.5%
[50]
  viability, T/C: 4.8%
Second compound 10 µM, first compound 0.949 µM
  viability, T/C: 2.06%
Second compound 10 µM, first compound 3 µM
  viability, T/C: 1.26%

## Nc1ncn(C2CC(O)C(CO)S2)c(=O)n1 (stereo not given) + Cc1cncc(-c2nc(NCCc3c[nH]c4ccccc34)c3ncn(C(C)C)c3n2)c1
Second compound 0.1 µM
  IC50: > 0.3 µM
Second compound 0.316 µM
  IC50: > 0.3 µM
Second compound 1 µM
  IC50: > 0.3 µM
Second compound 3.16 µM
  IC50: < 0.000949 µM
Second compound 10 µM
  IC50: < 0.000949 µM
Second compound 0.1 µM, first compound 0.000949 µM
  viability, T/C: 90.1%
Second compound 0.1 µM, first compound 0.003 µM
  viability, T/C: 89.7%
[31]
  viability, T/C: 92.5%
[32]
  viability, T/C: 77.8%
[33]
  viability, T/C: 73.7%
[34]
  viability, T/C: 63.3%
Second compound 0.316 µM, first compound 0.000949 µM
  viability, T/C: 94.1%
Second compound 0.316 µM, first compound 0.003 µM
  viability, T/C: 104%
[35]
  viability, T/C: 95%
[36]
  viability, T/C: 86.9%
[37]
  viability, T/C: 80.6%
[38]
  viability, T/C: 68.3%
Second compound 1 µM, first compound 0.000949 µM
  viability, T/C: 83.6%
Second compound 1 µM, first compound 0.003 µM
  viability, T/C: 86%
[39]
  viability, T/C: 80.4%
[40]
  viability, T/C: 73.4%
[41]
  viability, T/C: 75.2%
[42]
  viability, T/C: 68.2%
Second compound 3.16 µM, first compound 0.000949 µM
  viability, T/C: 32.3%
Second compound 3.16 µM, first compound 0.003 µM
  viability, T/C: 33.6%
[43]
  viability, T/C: 36.5%
[44]
  viability, T/C: 27.1%
[45]
  viability, T/C: 29.6%
[46]
  viability, T/C: 28.2%
Second compound 10 µM, first compound 0.000949 µM
  viability, T/C: 5.79%
Second compound 10 µM, first compound 0.003 µM
  viability, T/C: 5.22%
[47]
  viability, T/C: 5.53%
[48]
  viability, T/C: 6.62%
[49]
  viability, T/C: 4.93%
[50]
  viability, T/C: 5.47%
